What is called AUC(0-inf) is the area under the concentration-time curve extrapolated to infinity. The low end stands for low exposure, the high end for high exposure. Broadly, the Cmax is the maximum level reached in the sampled fluid or tissue. What is called half-life is how long it takes for the measured level to halve. A higher half-life goes with slow decline. As a reminder, the bioavailability is dose-corrected exposure relative to a reference, in per cent. Higher therefore signals much systemic uptake.

Each structure is given as a SMILES string.

What all share (format): ADME, organism-based
The nature of data set [1]: AUC(0 to infinity) in Sprague-Dawley rat at 1 mg/kg, iv measured upto 24 hrs by LC-MS/MS analysis. To be noted: in vivo.
The nature of data set [2]: AUC(0 to infinity) in Sprague-Dawley rat at 10 mg/kg, po measured upto 24 hrs by LC-MS/MS analysis. The following applies: in vivo.
Data set [3] can be described thus: Cmax in Sprague-Dawley rat at 1 mg/kg, iv measured upto 24 hrs by LC-MS/MS analysis. To be noted: in vivo.
The nature of data set [4]: Cmax in Sprague-Dawley rat at 10 mg/kg, po measured upto 24 hrs by LC-MS/MS analysis. The following applies: in vivo.
Data set [5] can be described thus: Half life in Sprague-Dawley rat at 1 mg/kg, iv measured upto 24 hrs by LC-MS/MS analysis. To be noted: in vivo.
The nature of data set [6]: Half life in Sprague-Dawley rat at 10 mg/kg, po measured upto 24 hrs by LC-MS/MS analysis. To be noted: in vivo.
A short description of data set [7]: Apparent volume of distribution in Sprague-Dawley rat at 1 mg/kg, iv measured upto 24 hrs by LC-MS/MS analysis. The following applies: in vivo, read-out: Vz.
Data set [8] in a line: Apparent volume of distribution in Sprague-Dawley rat at 10 mg/kg, po measured upto 24 hrs by LC-MS/MS analysis. To be noted: in vivo.
Data set [9] can be described thus: Apparent clearance in Sprague-Dawley rat at 1 mg/kg, iv measured upto 24 hrs by LC-MS/MS analysis. The following applies: in vivo, read-out: CL(app) (converted).
The nature of data set [10]: Apparent clearance in Sprague-Dawley rat at 10 mg/kg, po measured upto 24 hrs by LC-MS/MS analysis. To be noted: in vivo, read-out: CL(app) (converted).
Data set [11] can be described thus: Oral bioavailability in Sprague-Dawley rat at 10 mg/kg measured upto 24 hrs by LC-MS/MS analysis. To be noted: in vivo.

On to `COc1cccc(C(=O)Nc2cccc(Sc3ccc4c(NC(C)=O)n[nH]c4c3)c2)c1`, for which the AUC(0-inf) amounted to 175 ng·h/mL in data set [1] and 274 ng·h/mL in [2]. For the same molecule, the Cmax was found to be 689 ng/mL in data set [3] and 113 ng/mL in [4]. Moreover, the half-life was 16.8 min in [5] and 47.4 min in data set [6]. Further, the Vd in data set [7] amounted to 2.16 L/kg. In addition, the Vz in data set [8] turned out to be 39.752 L/kg. Moreover, the clearance in data set [9] is 96 mL/min/kg. Also, in data set [10], the CL/F was 657 mL/min/kg. In data set [11], this molecule gave a bioavailability of 15%.

The values are drawn from ChEMBL document CHEMBL5620352, “Discovery of highly potent and selective VEGFR2 kinase inhibitors for the treatment of rheumatoid arthritis” (Eur J Med Chem, 2023).
